These results are taken from US9133194B2, “Cyclic tripeptide mimetics as plasmin inhibitors” (priority 2011, dated 2015).

Like-named read-outs stand apart in the source and are kept apart here. A value given as a limit tells only on which side of the number the result lay.

For data set [1], the target named is plasmin (Homo sapiens, UniProt P00747). The data set is described as follows: Enzyme-kinetic determination of inhibition constants, plasmin (Chromozym PL). The data set is classed as biochemical. The text has this:
(§1) The Ki values are the mean value of at least two determinations.

In data set [2] the target is Factor Xa (human) (Homo sapiens, UniProt P00742). Description: Enzyme-kinetic determination of inhibition constants, factor Xa (Pefachrome FXa). It counts as biochemical. Particulars: Tris-HCl buffer pH 8.0, Dixon, mean of at least two determinations.
Text: as §1

Data set [3] addresses Thrombin (bovine) (Bos taurus, UniProt P00735). Description: Enzyme-kinetic determination of inhibition constants, thrombin (Pefachrome tPA). The data set is classed as biochemical. The note with it: Tris-HCl buffer pH 8.0, Dixon, mean of at least two determinations.
Text: as §1

Data set [4] deals with plasma kallikrein (Homo sapiens, UniProt P03952). Description: Enzyme-kinetic determination of inhibition constants, plasma kallikrein (Haemochrom PK). It counts as biochemical. The note with it: Tris-HCl buffer pH 8.0, Dixon, mean of at least two determinations.
Text: as §1

Data set [5] concerns the target trypsin. Particulars: background, aprotinin; read-out: K for trypsin; cited from earlier work.
The conditions of data set [6]: cited from earlier work.
Where [7] appears, read: Tris-HCl buffer pH 8.0, Dixon, mean of at least two determinations, read-out: Ki Plasmin.

Chain of plasma kallikrein (P03952 391-638 limits assumed): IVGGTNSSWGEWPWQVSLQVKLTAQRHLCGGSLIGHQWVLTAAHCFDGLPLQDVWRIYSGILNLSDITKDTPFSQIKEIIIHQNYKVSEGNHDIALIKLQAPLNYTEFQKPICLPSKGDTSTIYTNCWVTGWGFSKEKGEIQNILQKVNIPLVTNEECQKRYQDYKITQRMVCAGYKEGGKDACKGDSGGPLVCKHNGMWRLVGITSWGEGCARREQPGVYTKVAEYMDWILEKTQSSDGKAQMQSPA
Chain of plasma kallikrein (P03952 20-390 partner limits assumed): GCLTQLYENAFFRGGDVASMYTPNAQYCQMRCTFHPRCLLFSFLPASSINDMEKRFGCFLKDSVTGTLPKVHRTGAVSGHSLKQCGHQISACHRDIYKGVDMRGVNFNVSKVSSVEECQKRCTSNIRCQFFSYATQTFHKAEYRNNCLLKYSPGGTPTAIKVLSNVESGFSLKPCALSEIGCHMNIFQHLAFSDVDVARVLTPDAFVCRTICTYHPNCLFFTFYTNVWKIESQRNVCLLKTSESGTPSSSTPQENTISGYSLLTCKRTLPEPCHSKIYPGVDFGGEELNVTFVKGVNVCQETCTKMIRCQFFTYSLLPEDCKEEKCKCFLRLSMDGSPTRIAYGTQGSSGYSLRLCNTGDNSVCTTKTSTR
Chain of Factor Xa (human) (P00742 235-488 limits assumed): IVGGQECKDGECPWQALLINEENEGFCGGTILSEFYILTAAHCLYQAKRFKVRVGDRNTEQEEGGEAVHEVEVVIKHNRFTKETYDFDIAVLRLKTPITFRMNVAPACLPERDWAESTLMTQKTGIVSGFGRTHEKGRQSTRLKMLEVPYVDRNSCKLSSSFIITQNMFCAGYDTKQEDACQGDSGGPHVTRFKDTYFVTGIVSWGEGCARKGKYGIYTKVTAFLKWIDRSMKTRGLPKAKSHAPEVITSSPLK
Chain of Factor Xa (human) (P00742 41-179 partner limits assumed): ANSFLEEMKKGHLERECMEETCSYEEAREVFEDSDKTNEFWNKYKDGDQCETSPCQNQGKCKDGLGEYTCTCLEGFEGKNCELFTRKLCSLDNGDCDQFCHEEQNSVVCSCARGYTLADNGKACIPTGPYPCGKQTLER
Chain of plasmin (P00747 581-810 limits assumed): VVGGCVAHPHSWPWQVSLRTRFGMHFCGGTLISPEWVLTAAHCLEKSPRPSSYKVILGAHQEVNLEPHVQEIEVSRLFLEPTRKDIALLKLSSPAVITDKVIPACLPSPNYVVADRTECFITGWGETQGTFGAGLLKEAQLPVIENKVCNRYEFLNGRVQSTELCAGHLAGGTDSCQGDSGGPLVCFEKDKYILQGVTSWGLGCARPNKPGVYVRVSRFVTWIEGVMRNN
Chain of plasmin (P00747 97-580 partner limits assumed): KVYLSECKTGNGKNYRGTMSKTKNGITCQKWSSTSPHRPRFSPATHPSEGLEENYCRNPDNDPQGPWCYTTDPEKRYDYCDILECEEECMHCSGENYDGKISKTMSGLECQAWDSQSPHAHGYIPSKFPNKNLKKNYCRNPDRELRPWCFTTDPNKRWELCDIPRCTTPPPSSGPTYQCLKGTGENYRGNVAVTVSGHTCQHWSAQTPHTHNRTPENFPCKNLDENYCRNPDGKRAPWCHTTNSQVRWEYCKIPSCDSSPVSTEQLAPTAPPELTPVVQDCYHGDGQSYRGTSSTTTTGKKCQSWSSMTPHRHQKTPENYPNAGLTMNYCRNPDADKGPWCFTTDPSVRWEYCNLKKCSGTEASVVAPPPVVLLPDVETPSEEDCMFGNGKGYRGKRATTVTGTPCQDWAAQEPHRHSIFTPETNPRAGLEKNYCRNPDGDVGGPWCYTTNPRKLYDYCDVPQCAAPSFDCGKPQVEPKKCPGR

Regarding `N=C(N)c1ccc(CNC(=O)[C@@H]2Cc3ccc(cc3)NC(=O)CCN3CCN(CCC(=O)Nc4ccc(cc4)C[C@@H](NS(=O)(=O)NC4CCCCC4)C(=O)N2)CC3)cc1` [Inhibitor 1], the Ki turned out to be 0.052 nM in data set [1], 7.4 µM in data set [2], 17 µM in data set [3] and 0.6 µM in data set [4].
The like results for `N=C(N)c1ccc(CNC(=O)[C@@H]2Cc3ccc(cc3)NC(=O)CN3CCN(CC3)CC(=O)Nc3ccc(cc3)C[C@@H](NS(=O)(=O)NC3CCCCC3)C(=O)N2)cc1` [Inhibitor 2] were, in that order, 0.32 nM, 7.9 µM, 16 µM and 0.319 µM.
As for `NCc1ccc(CNC(=O)[C@@H]2Cc3ccc(cc3)NC(=O)CCN3CCN(CCC(=O)Nc4ccc(cc4)C[C@@H](NS(=O)(=O)Cc4ccccc4)C(=O)N2)CC3)cc1` [Inhibitor 3], the Ki came to 1.24 nM in data set [1], 78 µM in data set [2], 141 µM in data set [3] and 6.38 µM in data set [4].
With `N=C(N)c1ccc(CNC(=O)[C@@H]2Cc3ccc(cc3)NC(=O)CCN3CCN(CCC(=O)Nc4ccc(cc4)C[C@@H](NC(=O)Cc4ccccc4)C(=O)N2)CC3)cc1` [Inhibitor 4], the Ki in data set [1] (setting [7]) was determined as 8 nM; in data set [2] it was 188 µM; in data set [3], 41.8 µM; in data set [4], 7.92 µM.
For `N=C(N)c1ccc(CNC(=O)[C@@H]2Cc3ccc(cc3)NC(=O)CCN3CCN(CCC(=O)Nc4ccc(cc4)C[C@@H](NC(=O)OCc4ccccc4)C(=O)N2)CC3)cc1` [Inhibitor 5] the same measures were 0.77 nM, 47.4 µM, 44 µM and 6.95 µM.
As for `N=C(N)c1ccc(CNC(=O)[C@@H]2Cc3ccc(cc3)NC(=O)CCN3CCN(CCC(=O)Nc4ccc(cc4)C[C@@H](N)C(=O)N2)CC3)cc1` [Inhibitor 6], the Ki in data set [1] came to 12.8 nM; in data set [2] it was 405 µM; in data set [3], 60.8 µM; in data set [4], 24.5 µM.
Take `CC1(C)C(=O)Nc2ccc(cc2)C[C@@H](C(=O)NCc2ccc(C(=N)N)cc2)NC(=O)[C@H](NS(=O)(=O)Cc2ccccc2)Cc2ccc(cc2)NC(=O)C(C)(C)N2CCN1CC2` [Inhibitor 7]: the Ki was determined as 2.2 nM in data set [1] (setting [7]), 1.45 µM in data set [2], 0.62 µM in data set [3] and 0.077 µM in data set [4].
The like results for `N=C(N)c1ccc(CNC(=O)[C@@H]2Cc3ccc(cc3)NC(=O)CN3CCN(CC3)CC(=O)Nc3ccc(cc3)C[C@@H](NC(=O)OCc3ccccc3)C(=O)N2)cc1` [Inhibitor 11] were, in that order, 5.4 nM, 104 µM, 46.9 µM and 4.64 µM.
In the case of `N=C(N)NCCCCNC(=O)[C@@H]1Cc2ccc(cc2)NC(=O)CCN2CCN(CCC(=O)Nc3ccc(cc3)C[C@@H](NS(=O)(=O)NC3CCCCC3)C(=O)N1)CC2` [Inhibitor 13], the Ki in data set [1] (setting [7]) was found to be 3.5 nM.
Regarding `CN(C)S(=O)(=O)N[C@@H]1Cc2ccc(cc2)NC(=O)CN2CCN(CC2)CC(=O)Nc2ccc(cc2)C[C@@H](C(=O)NCc2ccc(C(=N)N)cc2)NC1=O` [Inhibitor 14], the Ki in data set [1] was determined as 5.9 nM; in data set [2], 134 µM; in data set [3], 4.96 µM; in data set [4], 12 µM.
Take aprotinin: the Ki in data set [5] is 0.0001 µM. In addition, the “risk of an anaphylactic shock” value is given as < 0.1% in data set [6] (aprotinin applied for the first time) and 4-5% in data set [6] (repeated administration within 200 days). For the same molecule, the “risk of myocardial infarction and apoplectic stroke” value in data set [6] (compared to the control groups) was “increased”. For the same molecule, the “number of cases of kidney damage requiring subsequent dialysis” value in data set [6] (comparison with ε-aminocaproic acid or tranexamic acid (Mangano et al.)) is recorded as “doubling”.
